Where two headings read alike, the source gives them in different places.
Columns and labels:
[1] = target: T1, α7/5-HT3 Chimeric Ligand Gated Ion Channel (Homo sapiens, UniProt P36544, M226I/T225I); type: binding, human α7 / mouse 5-HT3; details: for IC50: read-out: Fitc-α-Bungoarotoxin Binding (30 nM) IC50
T1 construct: expressed in transfected cells

α7 nAChR [2] = target: T2, α7 nAChR (Homo sapiens, UniProt P36544); details: endogenous α7 nACh receptor; cited from earlier work
α7 nAChR [3] = target: T2, α7 nAChR; details: human receptor; cited from earlier work
chicken α7 nAChR = chicken α7 nAChR (Gallus gallus, UniProt P22770); details: chicken receptor; cited from earlier work
Sequence of chicken α7 nAChR (P22770 23-502 limits assumed): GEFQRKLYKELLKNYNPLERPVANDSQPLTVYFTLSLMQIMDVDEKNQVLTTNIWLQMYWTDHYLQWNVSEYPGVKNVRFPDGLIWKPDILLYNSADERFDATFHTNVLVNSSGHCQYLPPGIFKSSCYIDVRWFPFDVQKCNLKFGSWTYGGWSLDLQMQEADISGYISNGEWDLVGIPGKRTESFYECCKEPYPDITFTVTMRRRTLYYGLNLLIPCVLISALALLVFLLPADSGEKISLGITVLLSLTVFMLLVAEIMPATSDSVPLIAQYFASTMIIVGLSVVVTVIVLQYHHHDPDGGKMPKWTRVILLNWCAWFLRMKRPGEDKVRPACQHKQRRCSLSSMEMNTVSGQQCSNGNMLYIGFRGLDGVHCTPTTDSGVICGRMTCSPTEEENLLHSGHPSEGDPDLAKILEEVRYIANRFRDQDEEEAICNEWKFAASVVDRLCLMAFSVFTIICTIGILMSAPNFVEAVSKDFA

α7/5-HT3 channel = target: T3, α7/5-HT3 channel (Homo sapiens, UniProt P36544, M226I/T225I); test: Calcium flux assay on FLIPR, agonist activity, α7/5-HT3-SHEP cells; type: cell-based, human α7 / mouse 5-HT3; details: for EC50: calcium flux
T3 construct: expressed in transfected cells
T3 sequence (P36544 with tags, fused parts or gaps T225I/M226I): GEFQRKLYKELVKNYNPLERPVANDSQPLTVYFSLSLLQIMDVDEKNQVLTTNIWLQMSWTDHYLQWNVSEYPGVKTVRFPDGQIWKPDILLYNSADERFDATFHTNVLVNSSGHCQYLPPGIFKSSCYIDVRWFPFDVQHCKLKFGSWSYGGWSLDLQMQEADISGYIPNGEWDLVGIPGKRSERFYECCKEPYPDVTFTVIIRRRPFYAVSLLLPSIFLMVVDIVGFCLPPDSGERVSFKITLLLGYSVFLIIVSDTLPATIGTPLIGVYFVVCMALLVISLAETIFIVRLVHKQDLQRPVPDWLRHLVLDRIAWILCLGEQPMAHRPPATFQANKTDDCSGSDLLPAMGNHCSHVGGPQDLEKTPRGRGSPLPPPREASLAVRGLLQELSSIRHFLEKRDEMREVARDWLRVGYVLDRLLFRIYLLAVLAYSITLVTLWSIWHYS
Experimental: The α7/5-HT3-SHEP or alternatively the human α7 nACHR double mutant SHEP (described below) cells were grown in minimal essential medium (MEM) containing nonessential amino acids supplemented with 10% fetal bovine serum, L-glutamine, 100 units/ml penicillin/streptomycin, 250 ng/ml fungizone, 400 μg/ml Hygromycin-B, and 800 μg/ml Geneticin. The cells were grown in a 37° C. incubator with 6% CO2. The α7/5-HT3-SHEP cells were trypsinized and plated in 96 well plates with dark side walls and clear bottoms (Corning # 3614) at density of […] cells per well two days before analysis. The cells were loaded in a 1:1 mixture of 2 mM Calcium Green-1, AM (Molecular Probes) prepared in anhydrous dimethylsulfoxide and 20% pluonic F-127 (Molecular Probes). This reagent was added directly to the growth medium of each well to achieve a final concentration of 2 μM of Calcium Green-1, AM. The cells were incubated in the dye for one hour at 37° C. and then washed with 4 cycles of Bio-Tek plate washer. Each cycle was programmed to wash each well with four times with either EBSS or MMEBSS. After the third cycle, the cells were allowed to incubate at 37° C. for at least ten minutes. After the fourth cycle final volume in each well was 100 μl. The cells were analyzed on FLIPR (Molecular Devices) for the change in fluorescence after the addition of a 100 μl of a 2× drug stock. FLIPR was set up to excite the dye with at 488 nanometers using 500 mW of power. A 0.5 second exposure was used to illuminate each well. Fluorescence emission was recorded above 525 nm. Fluorescence was detected using a F-stop set of either 2.0 or 1.2.
We compared the physiological Earles Balanced Salt Solution (EBBS) buffer and the special cell culture media (MMEBSS) in the Ca^++functional assay on FLIPR.
The special cell culture media, designated MMEBSS is comprised of 4 mM CaCl2, 0.8 mM MgSO4, 20 mM NaCl, 5.3 mM KCL, 5.6 mM D-Glucose, 120 mM N-Methyl-D-Glucosamine, 9 mM Tris base and 20 mM HEPES. A detailed description of the preparation of MMEBSS is provided below.

[4] = target: double mutant human α7 ligand gated ion channel (Homo sapiens, UniProt P36544, C241S/T230P); details: 100 M nicotine as printed
Sequence of double mutant human α7 ligand gated ion channel (P36544 23-502 T230P/C241S): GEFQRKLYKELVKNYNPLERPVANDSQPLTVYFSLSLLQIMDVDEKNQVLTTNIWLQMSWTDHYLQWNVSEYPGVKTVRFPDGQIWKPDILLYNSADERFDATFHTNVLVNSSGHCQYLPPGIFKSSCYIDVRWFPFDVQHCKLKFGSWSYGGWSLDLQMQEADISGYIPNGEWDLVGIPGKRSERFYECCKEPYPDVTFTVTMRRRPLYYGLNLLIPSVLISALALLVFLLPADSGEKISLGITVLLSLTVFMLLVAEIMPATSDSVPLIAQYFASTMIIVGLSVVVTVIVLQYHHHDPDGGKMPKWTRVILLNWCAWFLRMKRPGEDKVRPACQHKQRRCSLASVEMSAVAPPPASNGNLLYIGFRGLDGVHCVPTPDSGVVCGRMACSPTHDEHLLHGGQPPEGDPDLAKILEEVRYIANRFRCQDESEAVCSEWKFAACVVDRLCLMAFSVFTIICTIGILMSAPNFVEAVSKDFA
Experimental: The cells were grown in a 37° C. incubator with 6% CO2. […] Each cycle was programmed to wash each well with four times with either EBSS or MMEBSS. […] A 0.5 second exposure was used to illuminate each well. Fluorescence was detected using a F-stop set of either 2.0 or 1.2.

T2 sequence (P36544 23-502): as the sequence (P36544 23-502 T230P/C241S) above, with P208T, S219C counted along it
T1 sequence (P36544 with tags, fused parts or gaps T225I/M226I): as the sequence (P36544 with tags, fused parts or gaps T225I/M226I) above

COc1ccc(/C=C2\CCCN=C2c2cccnc2)c(OC)c1 [GTS-21]
IC50 ([1]; 30 nM Fl-btx, whole cell): 16 µM
EC50 (α7 nAChR [2]): 30 µM

C[N+]1(C)CCN(c2ccccc2)CC1 [1,1-dimethyl-4-phenylpiperazinium]
Agonist character (α7 nAChR [3]): full agonist
Agonist character (chicken α7 nAChR): partial agonist

CN1CCCC1c1cccnc1 (single isomer, unassigned; (-)) [(−) Nicotine]
Competition of Fl-btx binding [1]: competes at all concentrations of Fl-btx
Calcium response to agonist in physiological buffer (α7/5-HT3 channel; 100 μM, EBSS, FIG. 6): little calcium was detected
Calcium response to agonist in special cell culture media (α7/5-HT3 channel; 100 μM, MMEBSS, FIG. 6): evoked a large increase in intracellular calcium
Calcium influx [4]: induced a maximal calcium influx

CCN1C[C@]2(COC(=O)c3ccccc3N3C(=O)C[C@H](C)C3=O)CC[C@H](OC)[C@@]34[C@@H]5C[C@H]6[C@H](OC)[C@@H]5[C@](O)(C[C@@H]6OC)[C@](O)([C@@H](OC)[C@H]23)[C@@H]14 [Methyllcaconitine (MLA), Methyllcaconitine]
IC50 [1]: 0.026 µM

Clc1ccc([C@@H]2C[C@H]3CC[C@@H]2N3)cn1 (racemic) [(+/−) Epibatidine]
IC50 [1]: 0.09 µM
Ki ([1]; read-out: Ki, competition for Fl-btx binding): 0.09 µM
EC50 (α7/5-HT3 channel; MMEBSS): 0.12 µM
EC50 (α7 nAChR [2]): 2 µM

Cc1cc([C@@H]2CCCN2C)on1 [ABT-418]
IC50 [1]: 38 µM
EC50 (α7/5-HT3 channel; MMEBSS): 27 µM
EC50 (α7 nAChR [2]): 70 µM

c1cncc(C2=NCCCC2)c1 [Anabaseine]
EC50 (α7/5-HT3 channel; MMEBSS): 6.6 µM
EC50 (α7 nAChR [2]): 6 µM

CNC1(C)C2CCC(C2)C1(C)C (stereo not shown) [Mecamylamine]
IC50 [1]: > 300 µM
